Laboratory results taken from patent US20230303647A1, “CYCLIC CHEMERIN-9 DERIVATIVES” (priority 2020, published 2023).
“Also recorded” adds a separate entry of the source. Where a SMILES comes first, the peptide text is derived from it. Bridges are numbered along the chain shown (N, C = ends). [ ]: non-standard residue; d: D form. d(hCys) = N[C@H](CCS)C(=O)O

What was measured:
[1] = target: T1, CMKLR1 (Homo sapiens, UniProt Q99788); experiment: Fluorescence microscopy of CMKLR1 internalization and arrestin 3 recruitment; type: cell-based; set-up: expressed in transfected cells; host or cells: HEK293; details: HEK293 cells, 1 μM peptide, 30 min stimulation
T1 sequence (Q99788 1-373): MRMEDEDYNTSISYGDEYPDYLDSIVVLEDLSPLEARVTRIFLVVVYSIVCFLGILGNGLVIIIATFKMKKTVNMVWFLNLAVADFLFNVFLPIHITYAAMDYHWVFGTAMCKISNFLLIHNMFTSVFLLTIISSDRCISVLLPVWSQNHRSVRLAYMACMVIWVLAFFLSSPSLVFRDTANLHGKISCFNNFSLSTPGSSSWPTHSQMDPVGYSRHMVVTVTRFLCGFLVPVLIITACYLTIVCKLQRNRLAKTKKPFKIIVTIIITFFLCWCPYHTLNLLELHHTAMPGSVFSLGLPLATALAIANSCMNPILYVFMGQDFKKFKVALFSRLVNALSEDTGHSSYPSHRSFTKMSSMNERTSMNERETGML
Experimental: Ibidi 15μ-slides were coated with poly D-lysine before cell seeding. Cells were washed with DPBS prior to detachment with 1 ml trypsin/EDTA. […] The cell suspension was diluted to 140,000 cells/200 μl, which were seeded. Incubation was carried out overnight at 37° C. Afterwards, cells were transiently transfected. Plasmid DNA of hCMKLR1_eYFP_GαΔ6qi4myr_pV2 (0.9 μg) and mCherry_Arr3_pcDNA3 (0.1 μg) and 8 μl Lipofectamine were separately added to 100 μl DMEM/Ham's F12 and incubated for 10 min before unification and incubation at RT for 20 min. Incubation was carried out overnight at 37° C. […] The medium was replaced by 200 μl of OptiMEM and the to status was documented. The OptiMEM was then replaced by 200 μl of 1 μM peptide in OptiMEM. Fluorophore excitation was analyzed using different filters, depending on the emission wavelength of the fluorophore and the time of exposure was adjusted to each fluorophore individually. All images were processed identically with the AxioVision software (Carl Zeiss AG, Oberkochen, Germany).
To verify the arrestin-recruitment and analyze the internalization of the CMKLR1 receptor itself, HEK293 cells were used and transiently transfected with fluorescent labeled variants of the two molecules.
FIG. 2: Internalization of CMKLR1 and arrestin 3 recruitment. HEK293 cells expressing the hCMKLR1 (green) and arrestin 3 (Arr3; red) due to transient transfection were used for the internalization studies.

[2] = target: T1, CMKLR1; experiment: Ca2+ mobilization assay (G protein-mediated signaling)
Experimental: COS-7 cells were transfected in 75 cm^2 cell culture flasks with 12 μg of the hCMKLR1_eYFP_GαΔ6qi4myr_pV2 plasmid overnight using Metafectene Pro. Transfected cells were seeded in 96 well plates (100 μL cell suspension in DMEM+10% FBS/well) and incubated overnight. The following day, the Ca^2+-mobilization was performed as described previously. […] All experiments were performed in triplicates, each experiment was repeated at least twice. Nonlinear regression was calculated using GraphPad Prism 5.

[3] = target: T1, CMKLR1; experiment: BRET-based arrestin 3 recruitment assay; details: BRET, compared with chemerin-9
Experimental: HEK293 cells were transiently transfected using 75 cm^2 cell culture flasks with cell monolayers (confluency of ˜80%). Plasmid DNA of the C-terminally eYFP tagged human CMKLR1 and the chimeric G protein GαΔ6qi4myr in a pVitro2 vector (7.8 μg) and Renilla-luciferase 8-tagged Arrestin 3 in pcDNA3 (0.2 μg) and 24 μl MetafectenePro were separately added to 900 μl DMEM/Ham's F12 and incubated for 10 min before unification and incubation at RT for 20 min. […] The plasmid solution was added and cells were incubated overnight before seeding. Cell seeding was carried out in white 96-well polystyrene cell culture microplates, coated with poly-D lysine. […] Afterwards, the cells were incubated overnight at 37° C. The assay was performed under unsterile conditions. […] Afterwards, the cells were stimulated with the peptides in different concentrations (10^−5 to 10^−12 M) dissolved in BRET buffer. 50 μl of the peptide dilution were used for cell stimulation. Buffer without peptide was used as a negative control. […] The values of the negative control were subtracted, non-linear regression was calculated using GraphPad Prism. […] All measurements were performed in four technical replicates, all experiments were repeated at least twice.
The bioluminescence resonance energy transfer (BRET) assay was used to determine the potency of cyclic chemerin variants to recruit arrestin 3 to the CMKLR1 receptor after stimulation. HEK293 cells were transiently transfected with CMKLR1 receptor fused with eYFP fluorophore and Arrestin 3 tagged with Rluc8 luciferase. The transfected cells were seeded, incubated with the luciferase substrate coelenterazine-h and stimulated with different peptide concentrations, resulting in measurable BRET signals.

[4] = in vitro; details: human, plasma
Experimental: Investigation of peptide stability in blood plasma was carried out as described previously. […] Samples taken at the respective time points were added to a solution of 0.1% SDS in ACN/EtOH (1:1). After incubation at −20° C. for 20 min, the supernatant was transferred to a new tube and incubated again at −20° C. for at least 3 h. The solution was filtered by centrifugation using Costar Spin-X tubes (0.22 μm) and the filtrate was analyzed by RP-HPLC on a VariTide RPC. […] Peaks were integrated and the peak containing the intact peptide was normalized to the sample taken at t=0 min (100%).

| SMILES | arrestin 3 recruitment and internalization of the CMKLR1 [1] | G protein signaling activity (in words) ([2]; Ca2+ mobilization assay) | EC50 ([2]; pEC50 ± SEM, COS-7 cells transfected with hCMKLR1_eYFP_GαΔ6qi4myr, normalized to chemerin-9) | arrestin 3 recruitment to the CMKLR1 (in words) [3] | half-life [4] |
| --- | --- | --- | --- | --- | --- |
| C[C@@H]1NC(=O)[C@H](Cc2ccccc2)NC(=O)[C@H](CCC(N)=O)NC(=O)[C@H](NC(=O)[C@@H]2CCCN2C(=O)[C@H](Cc2ccccc2)NC(=O)[C@H](N)Cc2ccc(O)cc2)CCSSC[C@@H](C(=O)O)NC(=O)[C@H](Cc2c[nH]c3ccccc23)NC1=O [$$ 15, [y1,x4,W8,C9]-chemerin-9] (H-[dY]FP[d(hCys)]QFAWC-OH; disulfide 4-9) | neither internalization of the hCMKLR1 nor arrestin 3 recruitment could be detected | significantly decreased activity | 0.207 µM | no longer able to induce arrestin 3-recruitment; also recorded: completely abolishes arrestin recruitment |  |
| C[C@H](NC(=O)[C@H](Cc1ccccc1)NC(=O)[C@H](CCC(N)=O)NC(=O)CNC(=O)[C@@H]1CCCN1C(=O)[C@H](Cc1ccccc1)NC(=O)[C@H](Cc1ccc(O)cc1)NC(=O)c1ccc(C(=O)O)c(-c2c3ccc(=[N+](C)C)cc-3oc3cc(N(C)C)ccc23)c1)C(=O)N[C@@H](Cc1ccccc1)C(=O)N[C@@H](CO)C(=O)O [$$ 2, Tam-chemerin-9] |  |  |  |  | < 12 min |
